We go through 20 compounds from US20060148838A1, “Novel pyrrolodihydroisoquinolines useful in the treatment of cancer” (Altana Pharma AG, priority 2003, published 2006).

SMILES strings stand for the structures.

One may read the IC50 as the concentration needed to halve the response being measured. The term melting point denotes the temperature, or range, at which the solid turns liquid.

One data set has as its system NCl-H460 non-small cell lung cancer cells. Briefly: Alamar Blue cell viability assay, anti-proliferative/cytotoxic activity. The format is cell-based. Particulars: 72 hours incubation, one range stated for all listed Examples, read-out: −log IC50 NCl-H460 (converted). As to the method:
The anti-proliferative/cytotoxic activity of the compounds described herein, can be tested on NCl-H460 non-small cell lung cancer cells using the Alamar Blue cell viability assay (described in O'Brien et al. Eur J Biochem 267, 5421-5426, 2000). The compounds are dissolved as 20 mM solutions in dimethylsulfoxide (DMSO) and subsequently diluted in semi-logarithmic steps. DMSO dilutions are further diluted 1:100 into Dulbecco's modified Eagle's medium (DMEM) containing 10% fetal calf serum to a final concentration twice as much as the final concentration in the test. NCl-460 cells are seeded into 96 well flat bottom plates at a density of 4000 cells per well in a volume of 50 μl per well. 24 hours after seeding the 50 μl each of the compound dilutions in DMEM medium are added into each well of the 96 Well plate. Each compound dilution is tested as quadruplicates. Wells containing untreated control cells are filled with 50 μl DMEM medium containing 1% DMSO. The cells are then incubated with the substances for 72 hours at 37° C. In a humified atmosphere containing 5% carbon dioxide. To determine the viability of the cells, 10 μl of an Alamar Blue solution (Biosource) are added and the fluorescence is measured at an extinction of 544 nm and an emission of 590 nm. For the calculation of cell viability the emission value from untreated cells is set to 100% viability and the emission rates of treated cells are set in relation to the values of untreated cells. Viabilities are expressed as % values.
The corresponding IC50 values of the compounds for anti-proliferative/cytotoxic activity are determined from the concentration-effect curves.
Representative advantageous IC50 values for anti-proliferation/cytotoxicity determined for the compounds mentioned and numbered as Examples in the examples above follow from the following table A, in which the numbers of the compound correspond to the numbers of the examples.
(Resazurin is reduced to fluorescent resorufin, in cell work by metabolically active cells.)
On to `CCOC(=O)c1c(-c2cccc3ccccc23)c(C)n2c1-c1cc(OC)c(OCCOC)cc1CC2` [Example 20, 9-Methoxy-8-(2-methoxy-ethoxy)-3-methyl-2-naphthalen-1-yl-5,6-dihydro-pyrrolo[2,1-a]isoquinoline-1-carboxylic acid ethyl ester], for which the IC50 is 398 to 3160 nM.
On the same count and under the same terms, as for `CCOC(=O)c1c(-c2cc(C)c(O)c(C)c2)c(C)n2c1-c1cc(F)c(OC)cc1CC2` [Example 21, 9-Fluoro-2-(4-hydroxy-3,5-dimethyl-phenyl)-8-methoxy-3-methyl-5,6-dihydro-pyrrolo[2,1-a]isoquinoline-1-carboxylic acid ethyl ester], the figure is 398 to 3160 nM; as for `COc1cc2c(cc1OC)-c1c(C(=O)NC3CCCCC3)c(-c3cc(C)c(O)c(C)c3)c(C)n1CC2` [Example 28, 2-(4-Hydroxy-3,5-dimethyl-phenyl)-8,9-dimethoxy-3-methyl-5,6-dihydro-pyrrolo[2,1-a]isoquinoline-1-carboxylic acid cyclohexyl amide], 398 to 3160 nM.
On to `CCOC(=O)c1c(-c2cccc(N(C)C)c2)c(C)n2c1-c1cc(OC)c(OC(F)F)cc1CC2` [Example 10, 8-(1,1-Difluoro-methoxy)-2-(3-dimethylamino-phenyl)-9-methoxy-3-methyl-5,6-dihydro-pyrrolo[2,1-a]isoquinoline-1-carboxylic acid ethyl ester], for which the IC50 is 398 to 3160 nM.
Same read-out and setting: as for `COc1cc2c(cc1OC)-c1c(C(=O)NC(C)C)c(-c3cc(C)c(O)c(C)c3)c(C)n1CC2` [Example 30, 2-(4-Hydroxy-3,5-dimethyl-phenyl)-8,9-dimethoxy-3-methyl-5,6-dihydro-pyrrolo[2,1-a]isoquinoline-1-carboxylic acid isopropylamide], the figure is 398 to 3160 nM; as for `CCOC(=O)c1c(-c2cccc(N(C)C)c2)c(C)n2c1-c1cc(Cl)c(OC)cc1CC2` [Example 16, 9-Chloro-2-(3-dimethylamino-phenyl)-8-methoxy-3-methyl-5,6-dihydro-pyrrolo[2,1-a]isoquinoline-1-carboxylic acid ethyl ester], 398 to 3160 nM; as for `CCOC(=O)c1c(-c2cc(C)c(O)c(C)c2)c(C)n2c1-c1cc(OC)c(OC)cc1C(C)C2` (racemic) [Example 2, (6RS)-2-(4-Hydroxy-3,5-dimethyl-phenyl)-8,9-dimethoxy-3,6-dimethyl-5,6-dihydro-pyrrolo[2,1-a]isoquinoline-1-carboxylic acid ethyl ester], 398 to 3160 nM.

System in another data set: not given
Assay: not given
Conditions: not given
Take `CCOC(=O)c1c(-c2cc(OC)c(OC)c(OC)c2)c(C)n2c1-c1cc(Cl)c(OC)cc1CC2` [Example 15, 9-Chloro-8-methoxy-3-methyl-2-(3,4,5-trimethoxy-phenyl)-5,6-dihydro-pyrrolo[2,1-a]isoquinoline-1-carboxylic acid ethyl ester]: the melting point was 172 to 174 °C.
Take `CCOC(=O)c1c(-c2cccc3ccccc23)c(C)n2c1-c1cc(OC)c(OCCOC)cc1CC2` [Example 20, 9-Methoxy-8-(2-methoxy-ethoxy)-3-methyl-2-naphthalen-1-yl-5,6-dihydro-pyrrolo[2,1-a]isoquinoline-1-carboxylic acid ethyl ester]: the melting point lay within 126 to 128 °C.
Still for that read-out and setting: as for `COc1cc2c(cc1OC)-c1c(C(=O)NC3CCCCC3)c(-c3cc(C)c(O)c(C)c3)c(C)n1CC2` [Example 28, 2-(4-Hydroxy-3,5-dimethyl-phenyl)-8,9-dimethoxy-3-methyl-5,6-dihydro-pyrrolo[2,1-a]isoquinoline-1-carboxylic acid cyclohexyl amide], the figure is 273 to 276 °C; as for `COc1cc2c(cc1OC)-c1c(C(N)=O)c(-c3cc(C)c(O)c(C)c3)c(C)n1CC2` [Example 33, 2-(4-Hydroxy-3,5-dimethyl-phenyl)-8,9-dimethoxy-3-methyl-5,6-dihydro-pyrrolo[2,1-a]isoquinoline-1-carboxylic acid amide], 229 to 231 °C; as for `COc1cc2c(cc1OC)-c1c(-c3ccccc3)c(-c3cc(C)c(O)c(C)c3)c(C)n1CC2` [Example 27, 4-(8,9-Dimethoxy-3-methyl-1-phenyl-5,6-dihydro-pyrrolo[2,1-a]isoquinolin-2-yl)-2,6-dimethyl-phenol], 210 to 214 °C.
Same read-out and setting: as for `CCOC(=O)c1c(-c2cc(OC)c(OC)c(OC)c2)c(C)n2c1-c1cc(OC)c(OC(F)F)cc1CC2` [Example 8, 8-(1,1-Difluoro-methoxy)-9-methoxy-3-methyl-2-(3,4,5-trimethoxy-phenyl)-5,6-dihydro-pyrrolo[2,1-a]isoquinoline-1-carboxylic acid ethyl ester], the figure is 155 °C.
Turning to `CCOC(=O)c1c(-c2cc(OC)c(OC)c(OC)c2)c(C)n2c1-c1cc(OC)c(OCCOC)cc1CC2` [Example 19, 9-Methoxy-8-(2-methoxy-ethoxy)-3-methyl-2-(3,4,5-trimethoxy-phenyl)-5,6-dihydro-pyrrolo[2,1-a]isoquinoline-1-carboxylic acid ethyl ester], the melting point lay in the range of 152 to 154 °C.
`CCOC(=O)c1c(-c2cc(C)c(O)c(C)c2)c(C)n2c1-c1cc(C)c(OC)cc1CC2` [Example 23, 2-(4-Hydroxy-3,5-dimethyl-phenyl)-8-methoxy-3,9-dimethyl-5,6-dihydro-pyrrolo[2,1-a]isoquinoline-1-carboxylic acid ethyl ester] had a melting point of 179 to 181 °C.
Still for that read-out and setting: as for `COc1cc2c(cc1OC)-c1c(C(=O)c3ccccc3)c(-c3cc(C)c(O)c(C)c3)c(C)n1CC2` [Example 26, 1-[2-(4-hydroxy-3,5-dimethyl-phenyl)-8,9-dimethoxy-3-methyl-5,6-dihydro-pyrrolo[2,1-a]isoquinolin-1-yl]-1-phenyl-methanone], the figure is 194 to 196 °C; as for `COc1cc2c(cc1OC)-c1c(C(=O)NC3CC3)c(-c3cc(C)c(O)c(C)c3)c(C)n1CC2` [Example 37, 2-(4-Hydroxy-3,5-dimethyl-phenyl)-8,9-dimethoxy-3-methyl-5,6-dihydro-pyrrolo[2,1-a]isoquinoline-1-carboxylic acid cyclopropylamide], 254 to 256 °C.
The same measure, in the same setting: as for `CCNC(=O)c1c(-c2cc(C)c(O)c(C)c2)c(C)n2c1-c1cc(OC)c(OC)cc1CC2` [Example 35, 2-(4-Hydroxy-3,5-dimethyl-phenyl)-8,9-dimethoxy-3-methyl-5,6-dihydro-pyrrolo[2,1-a]isoquinoline-1-carboxylic acid ethylamide], the figure is 242 to 244 °C; as for `CNC(=O)c1c(-c2cc(C)c(O)c(C)c2)c(C)n2c1-c1cc(OC)c(OC)cc1CC2` [Example 32, 2-(4-Hydroxy-3,5-dimethyl-phenyl)-8,9-dimethoxy-3-methyl-5,6-dihydro-pyrrolo[2,1-a]isoquinoline-1-carboxylic acid methylamide], 281 to 283 °C.
Same read-out and setting: in the case of `CCOC(=O)c1c(-c2cc(C)c(O)c(C)c2)c(C)n2c1-c1cc(OC)c(Cl)cc1CC2` [Example 17, 8-Chloro-2-(4-hydroxy-3,5-dimethyl-phenyl)-9-methoxy-3-methyl-5,6-dihydro-pyrrolo[2,1-a]isoquinoline-1-carboxylic acid ethyl ester] it was 167 to 169 °C; in that of `CCOC(=O)c1c(-c2cc(C)c(O)c(C)c2)c(C)n2c1-c1c(cc(OC)c(OC)c1OC)CC2` [Example 7, 2-(4-Hydroxy-3,5-dimethyl-phenyl)-8,9,10-trimethoxy-3-methyl-5,6-dihydro-pyrrolo[2,1-a]isoquinoline-1-carboxylic acid ethyl ester], 246 to 251 °C.
Take `COc1cc2c(cc1OC)-c1c(C(=O)N(C)C)c(-c3cc(C)c(O)c(C)c3)c(C)n1CC2` [Example 31, 2-(4-Hydroxy-3,5-dimethyl-phenyl)-8,9-dimethoxy-3-methyl-5,6-dihydro-pyrrolo[2,1-a]isoquinoline-1-carboxylic acid dimethylamide]: the melting point lay in the range of 259 to 261 °C.
